The text below walks through data of publication PMC3066269 (Bioorganic & medicinal chemistry, 2011).

Each structure is given as a SMILES string.

The target in the test is hAChE-induced aggregation of Aβ1–40 (Homo sapiens, UniProt P22303). Description: hAChE-induced Aβ aggregation inhibition, thioflavin T fluorescence. In kind it is biochemical. The conditions noted are these: 100 μM compound, 50 μM Aβ1–40, 24 h, ThT; NA = Not active.
Chain of hAChE-induced aggregation of Aβ1–40 (P22303 32-614): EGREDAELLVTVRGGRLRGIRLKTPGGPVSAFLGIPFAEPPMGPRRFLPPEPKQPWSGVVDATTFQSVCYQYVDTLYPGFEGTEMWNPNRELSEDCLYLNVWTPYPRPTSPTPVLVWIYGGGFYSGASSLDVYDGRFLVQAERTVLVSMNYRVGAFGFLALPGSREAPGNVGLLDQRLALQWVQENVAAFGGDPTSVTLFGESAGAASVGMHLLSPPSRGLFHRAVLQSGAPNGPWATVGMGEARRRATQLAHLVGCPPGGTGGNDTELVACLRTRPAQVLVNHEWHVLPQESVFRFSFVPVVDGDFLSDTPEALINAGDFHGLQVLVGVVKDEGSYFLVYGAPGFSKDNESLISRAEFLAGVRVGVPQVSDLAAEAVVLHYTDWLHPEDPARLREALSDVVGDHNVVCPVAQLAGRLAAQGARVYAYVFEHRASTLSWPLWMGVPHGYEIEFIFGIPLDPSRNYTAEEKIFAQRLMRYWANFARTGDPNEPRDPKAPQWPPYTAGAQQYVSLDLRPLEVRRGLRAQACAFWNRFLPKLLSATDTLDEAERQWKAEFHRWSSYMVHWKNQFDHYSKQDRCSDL
As to `c1ccc(CNc2ccnc(N3CCCC3)n2)cc1` [7a, N-Benzyl-2-(pyrrolidin-1-yl)pyrimidin-4-amine], the “Inhibition of hAChE-induced aggregation of Aβ1–40 at 100 μM ± SEM” value is listed as “did not provide anti-aggregation activity”.
In the case of `c1ccc(CNc2ccnc(N3CCSCC3)n2)cc1` [7c, N-Benzyl-2-thiomorpholinopyrimidin-4-amine] it was “either weak or no anti-aggregation activity”.
In the case of `c1ccc(CCNc2ccnc(N3CCSCC3)n2)cc1` [8c, N-Phenethyl-2-thiomorpholinopyrimidin-4-amine] it was “either weak or no anti-aggregation activity”.
